What was measured:
Type in all cases: in vivo
rice (Oryza sativa) [1] = test: Test B flooded paddy test rice; conditions: Oryza sativa, Table B, Flood, 250 g ai/ha, scale 0 to 100, read-out: Plant response rating
Summary of the method: (§1)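 2-leaf plants; flood 3 cm over soil; cpd into paddy water; water depth kept; greenhouse 13–15 d; visual rating vs controls.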

[2] = test system: ducksalad (Heteranthera limosa); test: Test B flooded paddy test ducksalad; conditions: Heteranthera limosa, Table B, Flood, 250 g ai/ha, scale 0 to 100, read-out: Plant response rating
Summary of the method: as §1

[3] = test system: barnyardgrass (Echinochloa crus-galli); test: Test C flooded paddy test barnyardgrass; conditions: Table C, Flood, 1000 g ai/ha, scale 0 to 100
Text: (§2) Plant species in the flooded paddy test consisted of rice (Oryza sativa), sedge, umbrella (small-flower umbrella sedge, Cyperus difformis), ducksalad (Heteranthera limosa), and barnyardgrass (Echinochloa crus-galli) grown to the 2-leaf stage for testing. At time of treatment, test pots were flooded to 3 cm above the soil surface, treated by application of test compounds directly to the paddy water, and then maintained at that water depth for the duration of the test. Treated plants and controls were maintained in a greenhouse for 13 to 15 d, after which time all species were compared to controls and visually evaluated. Plant response ratings, summarized in Table C, are based on a scale of 0 to 100 where 0 is no effect and 100 is complete control. A dash (-) response means no test result.

[4] = test system: foxtail, giant (giant foxtail, Setaria faberii); test: Test A postemergence foxtail, giant; conditions: Setaria faberi, post-emergence, 240 h, 0 to 100 scale, 0 is no effect, 100 is complete control, read-out: Plant response rating, Foxtail, Giant; for pest or weed control at 125 g/ha: 125 g ai/ha; for pest or weed control at 500 g/ha: 500 g ai/ha
Summary of the method: (§3)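 Directed soil spray at planting gives preemergence data; foliar application to one- to two-leaf plants gives postemergence data. Response is visual injury relative to untreated controls about 10 d after treatment, scored 0–100.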

[5] = test system: pigweed (Amaranthus retroflexus); test: Test A postemergence pigweed; conditions: Amaranthus retroflexus, post-emergence, 240 h, 0 to 100 scale, 0 is no effect, 100 is complete control, read-out: Plant response rating, Pigweed; for pest or weed control at 125 g/ha: 125 g ai/ha; for pest or weed control at 500 g/ha: 500 g ai/ha
Summary of the method: as §3

[6] = test system: wheat (Triticum aestivum); test: Test A postemergence wheat; conditions: Triticum aestivum, post-emergence, 240 h, 0 to 100 scale, 0 is no effect, 100 is complete control, read-out: Plant response rating, Wheat; for plant injury at 125 g/ha: 125 g ai/ha; for plant injury at 500 g/ha: 500 g ai/ha
Summary of the method: as §3

[7] = test system: barnyardgrass (Echinochloa crus-galli); test: Test A preemergence barnyardgrass; conditions: 0 to 100 scale; for pest or weed control at 125 g/ha: 125 g ai/ha
Summary of the method: as §3

[8] = test system: foxtail, giant (giant foxtail, Setaria faberii); test: Test A preemergence foxtail, giant; conditions: Setaria faberi, pre-emergence, 240 h, 0 to 100 scale, 0 no effect, 100 complete control, read-out: Foxtail, Giant plant response rating; for pest or weed control at 125 g/ha: 125 g ai/ha; for pest or weed control at 500 g/ha: 500 g ai/ha
Summary of the method: as §3

rice (Oryza sativa) [9] = test: Test C flooded paddy test rice; conditions: Table C, Flood, 1000 g ai/ha, scale 0 to 100
Text: as §2

[10] = test system: ducksalad (Heteranthera limosa); test: Test C flooded paddy test ducksalad; conditions: Table C, Flood, 1000 g ai/ha, scale 0 to 100
Text: as §2

[11] = test system: sedge, umbrella (small-flower umbrella sedge, Cyperus difformis); test: Test C flooded paddy test sedge, umbrella; conditions: Table C, Flood, 1000 g ai/ha, scale 0 to 100
Text: as §2

corn (Zea mays) = test: Test A postemergence corn; conditions: Zea mays, post-emergence, 240 h, 0 to 100 scale, 0 is no effect, 100 is complete control; for Corn plant response rating (crop injury, 0 = no effect, 100 = complete kill) at 125 g/ha: 125 g ai/ha; for Corn plant response rating (crop injury, 0 = no effect, 100 = complete kill) at 500 g/ha: 500 g ai/ha
Summary of the method: as §3

[12] = test system: pigweed (Amaranthus retroflexus); test: Test A preemergence pigweed; conditions: Amaranthus retroflexus, pre-emergence, 240 h, 0 to 100 scale, 0 no effect, 100 complete control, read-out: Pigweed plant response rating; for pest or weed control at 125 g/ha: 125 g ai/ha; for pest or weed control at 500 g/ha: 500 g ai/ha
Summary of the method: as §3

[13] = test system: barnyardgrass (Echinochloa crus-galli); test: Test B flooded paddy test barnyardgrass; conditions: Echinochloa crus-galli, Table B, Flood, 250 g ai/ha, scale 0 to 100, read-out: Plant response rating
Summary of the method: as §1

[14] = test system: sedge, umbrella (small-flower umbrella sedge, Cyperus difformis); test: Test B flooded paddy test sedge, umbrella; conditions: Cyperus difformis, Table B, Flood, 250 g ai/ha, scale 0 to 100, read-out: Plant response rating
Summary of the method: as §1

[15] = test system: barnyardgrass (Echinochloa crus-galli); test: Test A postemergence barnyardgrass; conditions: Echinochloa crus-galli, post-emergence, 240 h, 0 to 100 scale, 0 is no effect, 100 is complete control, read-out: Plant response rating, Barnyardgrass; for pest or weed control at 125 g/ha: 125 g ai/ha; for pest or weed control at 500 g/ha: 500 g ai/ha
Summary of the method: as §3

[16] = test system: ragweed (common ragweed, Ambrosia elatior); test: Test A postemergence ragweed; conditions: Ambrosia artemisiifolia, post-emergence, 240 h, 0 to 100 scale, 0 is no effect, 100 is complete control, read-out: Plant response rating, Ragweed
Summary of the method: as §3

[17] = test system: ryegrass, Italian (Italian ryegrass, Lolium multiflorum); test: Test A postemergence ryegrass, Italian; conditions: Lolium multiflorum, post-emergence, 240 h, 0 to 100 scale, 0 is no effect, 100 is complete control, read-out: Plant response rating, Ryegrass, Italian
Summary of the method: as §3

[18] = test system: ryegrass, Italian (Italian ryegrass, Lolium multiflorum); test: Test A preemergence ryegrass, Italian; conditions: Lolium multiflorum, pre-emergence, 240 h, 0 to 100 scale, 0 no effect, 100 complete control, read-out: Ryegrass, Italian plant response rating
Summary of the method: as §3

kochia (Kochia scoparia) [19] = test: Test A preemergence kochia; conditions: Bassia scoparia, pre-emergence, 240 h, 0 to 100 scale, 0 no effect, 100 complete control, read-out: Kochia plant response rating
Summary of the method: as §3

[20] = test system: galium (catchweed bedstraw, Galium aparine); test: Test A postemergence galium; conditions: Galium, post-emergence, 240 h, 0 to 100 scale, 0 is no effect, 100 is complete control, read-out: Plant response rating, Galium
Summary of the method: as §3

[21] = test system: ragweed (common ragweed, Ambrosia elatior); test: Test A preemergence ragweed; conditions: Ambrosia artemisiifolia, pre-emergence, 240 h, 0 to 100 scale, 0 no effect, 100 complete control, read-out: Ragweed plant response rating
Summary of the method: as §3

kochia (Kochia scoparia) [22] = test: Test A postemergence kochia; conditions: Bassia scoparia, post-emergence, 240 h, 0 to 100 scale, 0 is no effect, 100 is complete control, read-out: Plant response rating, Kochia
Summary of the method: as §3

[23] = test system: blackgrass (Alopecurus myosuroides); test: Test A postemergence blackgrass; conditions: Alopecurus myosuroides, post-emergence, 240 h, 0 to 100 scale, 0 is no effect, 100 is complete control, read-out: Plant response rating, Blackgrass
Summary of the method: as §3

[24] = Echinochloa crus-galli, pre-emergence, 240 h, 0 no effect, 100 complete control, read-out: Barnyardgrass plant response rating

Row | Compound | plant injury at 250 g/ha (rice (Oryza sativa) [1]) | pest or weed control at 250 g/ha [2] | pest or weed control at 125 g/ha [4] | pest or weed control at 500 g/ha [4] | pest or weed control at 125 g/ha [5] | pest or weed control at 500 g/ha [5] | plant injury at 125 g/ha [6] | plant injury at 500 g/ha [6] | pest or weed control at 125 g/ha [7, 24] | pest or weed control at 125 g/ha [8] | pest or weed control at 500 g/ha [8] | Corn plant response rating (crop injury, 0 = no effect, 100 = complete kill) at 125 g/ha (corn (Zea mays)) | Corn plant response rating (crop injury, 0 = no effect, 100 = complete kill) at 500 g/ha (corn (Zea mays)) | pest or weed control at 125 g/ha [12] | pest or weed control at 500 g/ha [12] | pest or weed control at 250 g/ha [13] | pest or weed control at 250 g/ha [14] | pest or weed control at 125 g/ha [15] | pest or weed control at 500 g/ha [15] | other results
1 | O=C1NCCC(c2cccc(C(F)(F)F)c2)C1C(=O)Nc1cccc(F)c1F (stereo not drawn) [Compound 9, N-(2,3-difluorophenyl)-2-oxo-4-[3-(trifluoromethyl)phenyl]-3-piperidinecarboxamide] | 0% | 90% | 80% | 90% | 0% | 0% | 20% | 40% | 90% | 90% | 90% | 40% | 80% | 0% | 0% | 75% | 0% | 80% | 90% | Plant response rating [3]: 80; Plant response rating, Barnyardgrass ([7]; 500 g ai/ha, 0 is no effect, 100 is complete control): 90; Plant response rating (rice (Oryza sativa) [9]): 10; Plant response rating [10]: 98; Plant response rating [11]: 0
2 | CN1CC[C@H](c2ccc(F)cc2)[C@@H](C(=O)Nc2ccccc2C(F)(F)F)C1=O [Compound 53, (3S,4S)-4-(4-fluorophenyl)-1-methyl-2-oxo-N-[2-(trifluoromethyl)phenyl]-3-piperidinecarboxamide] | 0% | 0% | 0% | 20% | 0% | 0% | 0% | 20% | 0% | 0% | 90% | 0% | 20% | 0% | 50% | 0% | 0% | 0% | 0% | pest or weed control at 125 g/ha ([16]; 125 g ai/ha): 0%; pest or weed control at 500 g/ha ([16]; 500 g ai/ha): 0%; pest or weed control at 500 g/ha ([7]; Echinochloa crus-galli, pre-emergence, 240 h, 500 g ai/ha, 0 no effect, 100 complete control, read-out: Barnyardgrass plant response rating): 80%; pest or weed control at 125 g/ha ([17]; 125 g ai/ha): 0%; pest or weed control at 500 g/ha ([17]; 500 g ai/ha): 0%; pest or weed control at 125 g/ha ([18]; 125 g ai/ha): 0%; pest or weed control at 500 g/ha ([18]; 500 g ai/ha): 0%; pest or weed control at 125 g/ha (kochia (Kochia scoparia) [19]; 125 g ai/ha): 0%; pest or weed control at 500 g/ha (kochia (Kochia scoparia) [19]; 500 g ai/ha): 0%; pest or weed control at 125 g/ha ([20]; 125 g ai/ha): 0%; pest or weed control at 500 g/ha ([20]; 500 g ai/ha): 0%; pest or weed control at 125 g/ha ([21]; 125 g ai/ha): 0%; pest or weed control at 500 g/ha ([21]; 500 g ai/ha): 0%; pest or weed control at 125 g/ha (kochia (Kochia scoparia) [22]; 125 g ai/ha): 0%; pest or weed control at 500 g/ha (kochia (Kochia scoparia) [22]; 500 g ai/ha): 0%; pest or weed control at 125 g/ha ([23]; 125 g ai/ha): 0%; pest or weed control at 500 g/ha ([23]; 500 g ai/ha): 20%

Reference: patent US9944602B2, “Piperidinone herbicides” (E. I. DU PONT DE NEMOURS AND COMPANY, priority 2014, dated 2018)
